Measured values from patent publication US20100028447A1, “Intranasal, Buccal, And Sublingual Administration Of Metanicotine Analogs” (TARGACEPT, INC., priority 2007, published 2010).
Several values for one entry are separate records, joined by “and”; a condition that tells them apart may be missing. Equal entries are not always repeated. Where two headings read alike, the source gives them in different places.

Experiment: Brain-to-plasma ratio after oral gavage or intranasal administration (Example 4)
Assay type: in vivo, Sprague-Dawley rats
Description: Eight treatment groups of nine rats each were used (see Study Design, Table 6). […] The animals were housed up to three per cage and identified by cage labels. A single room was used for this study. […] Food was withheld from the animals for a minimum of 12 hours before the study and during the study, and was returned at 4 hours post-dose. Water was supplied ad libitum during the study.
All dosing solutions were prepared in isotonic PBS (phosphate buffered saline) buffer at pH 7.4. […] For intranasal dosing, the animals were anesthetized with CO2 prior to dosing, and the solution was administered in a droplet from a pipette.
For each treatment group, brain and plasma samples were collected at 10, 30 and 60 minutes post-dose. Blood samples were placed in heparinized tubles and spun at 13,000 rpm for 5 minutes. The plasma was placed in polyethylene tubes and frozen (−60 to −80° C.). Brain samples were also placed in chilled tubes and frozen (−60 to −80° C.). Samples remained chilled during subsequent processing.
Brain samples were thawed and weighed. […] After homogenation, the volume of each sample was recorded and the samples were frozen at −80° C. until analysis.
Plastic tubes were used for all steps. Standards were prepared at concentrations of 1000, 500, 250, 100, 50, 10, 5 and 1 ng/mL by serial dilution. Quality control samples were also prepared at 500, 100, and 5 ng/mL. […] Brain standards and quality control samples were treated identically to the test compound samples.
(§1) Brain samples (200 μL) were loaded onto a 96 well plate and then transferred to 400 μL of pure acetonitrile (containing 10 ng/mL nicotine as an internal standard) in a Sirocco Protein Precipitation Plate (Waters Corporation). The resulting suspensions were mixed and then filtered into a clean 96-well collection plate using a vacuum. A 200 μL aliquot of the resulting filtrate was then transferred to plastic HPLC vials for analysis.
as §1, with “Plasma” for “Brain”, “(50” for “(200”, “150” for “400”, “80” for “200”
(§2) Brain samples (200 μL) were loaded onto a 96 well plate and then transferred to 400 μL of acetonitrile containing internal standard (100 ng/mL Pindolol) in a Sirocco Protein Precipitation Plate (Waters Corporation). The resulting suspensions were mixed and then filtered into a clean 96-well collection plate using a vacuum. The resulting filtrates were then evaporated to dryness under nitrogen at 37° C. The resulting residues were reconstituted with 200 μL of water. The samples were then mixed, centrifuged, and transferred (100 μL) to plastic HPLC vials for analysis.
as §2, with “(50” for “(200”, “150” for “400”, “100” for “200”

[1] = Sprague-Dawley, rat, in vivo, 10 mg/kg, Brain-to-Plasma Ratio
[2] = Sprague-Dawley, rat, in vivo, 10 mg/kg, Mean Ratio (brain-to-plasma)
[3] = Sprague-Dawley, rat, in vivo, intranasal, 1 mg/kg, Average brain-to-plasma ratio
[4] = Sprague-Dawley, rat, in vivo, po, 5 mg/kg, Average brain-to-plasma ratio

## CN[C@@H](C)C/C=C/c1cncc(OC)c1 [Compound A, (2S)-(4E)-N-methyl-5-(3-(5-methoxypyridin)yl)-4-penten-2-amine]
Group 1, OG, 10 mg/kg, 30 min, 10 mg/kg
  Plasma Conc.: 216 ng/mL and 278 ng/mL
Group 1, OG, 10 mg/kg, 60 min, 10 mg/kg
  Plasma Conc.: 239 ng/mL and 234 ng/mL
Group 3, OG, 10 mg/kg, 10 min, 10 mg/kg
  Plasma Conc.: 327 ng/mL and 249 ng/mL
[1]
  Kp at 0.5 h: 0.044
  Kp at 1 h: 0.038
Sprague-Dawley, rat, in vivo, 10 mg/kg, Group 1, OG, 10 mg/kg, 30 min, read-out: Brain Conc.
  concentration at 30 min: 2.04 ng/mL and 9.6 ng/g
Sprague-Dawley, rat, in vivo, 10 mg/kg, Group 1, OG, 10 mg/kg, 30 min, read-out: Plasma Conc.
  concentration at 30 min: 174 ng/mL
Sprague-Dawley, rat, in vivo, 10 mg/kg, Group 1, OG, 10 mg/kg, 60 min, read-out: Brain Conc.
  concentration at 60 min: 1.26 ng/mL and 6.08 ng/g
Sprague-Dawley, rat, in vivo, 10 mg/kg, Group 1, OG, 10 mg/kg, 60 min, read-out: Plasma Conc.
  concentration at 60 min: 158 ng/mL
Sprague-Dawley, rat, in vivo, 10 mg/kg, Group 2, OG, 10 mg/kg, 60 min, read-out: Brain Conc.
  concentration at 60 min: 2.81 ng/mL and 13.9 ng/g
Sprague-Dawley, rat, in vivo, 10 mg/kg, Group 3, OG, 10 mg/kg, 10 min, read-out: Plasma Conc.
  concentration at 10 min: 313 ng/mL
[2]
  Kp at 0.5 h: 0.042
  Kp at 1 h: 0.032
  Kp at […]: 0.039
Sprague-Dawley, rat, in vivo, intranasal, 0.1 mg/kg, Brain-to-plasma ratio
  Kp at 0.5 h: 5.52
Sprague-Dawley, rat, in vivo, intranasal, 0.1 mg/kg, Brain-to-plasma ratio (average value)
  Kp at […]: 2.21
[3]
  Kp at 0.5 h: 4.28
  Kp at 1 h: 6.4
  Kp at […]: 1.58
[4]
  Kp at 0.5 h: 2.37
  Kp at 1 h: 3.38
  Kp at […]: 1.75
By both intranasal and oral administration
  Exposures in plasma and brain, Compound A compared with Compound B: much greater
rat, in vivo
  Brain-to-plasma ratios, intranasal as opposed to oral gavage administration: generally greater

## CNCC/C=C/c1cccnc1 [Compound B, N-methyl-(4-pyridin-3-yl-but-3-enyl)-amine]
Sprague-Dawley, rat, in vivo, inhaled or intranasal, 1 mg/kg, intranasal 1 mg/kg with pargyline, 10 minute time point, two animals, read-out: Brain-to-plasma ratio (average value)
  Kp at […]: 0.89
Sprague-Dawley, rat, in vivo, inhaled or intranasal, 1 mg/kg, intranasal 1 mg/kg with pargyline, 30 minute time point, one animal, read-out: Brain-to-plasma ratio
  Kp at 0.5 h: 0.21
Sprague-Dawley, rat, in vivo, inhaled or intranasal, 1 mg/kg, intranasal 1 mg/kg without pargyline, 10 minute time point, two animals, read-out: Brain-to-plasma ratio (average value)
  Kp at […]: 1.09
Sprague-Dawley, rat, in vivo, po, 10 mg/kg, oral gavage administration, two animals, both at the minute time point
  Kp: 0.22
